Assay [1] addresses T1, horseradish peroxidase (HRP) tagged delF508-CFTR (Homo sapiens, UniProt P13569, DEL508-508).
T1 construct: expressed in transfected cells
Nature of the assay: Measurement of delF508-CFTR-HRP surface expression in CFBE41o- cells.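 For DelF508-CFTR-HRP Amax %: percent efficacy relative to reference corrector lumacaftor.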 As to conditions: delF508-CFTR-HRP surface expression, CFBE41o- cells; for Emax: read-out: DelF508-CFTR-HRP Amax %; for pEC50: read-out: DelF508-CFTR-HRP EC50. Type of assay: cell-based. The procedure, abridged:
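CFBE41o- bronchial epithelial cells stably expressing delF508-CFTR with HRP in the fourth extracellular loop; expression induced 48h with 500 ng/mL doxycycline, then compounds added (top 10 μM, 10-point 3-fold series, ≤0.5% DMSO) for 24h at 37° C. Surface HRP measured by luminescence with cell-impermeant substrate; EC50 from logistic fit of triplicates, plate-normalized to lowest concentration; efficacy also relative to a reference corrector.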

In assay [2] the target is T2, delF508-CFTR (Homo sapiens, UniProt P13569, DEL508-508).
T2 construct: functional activity of the CFTR channel (Chloride ion transport) in patient derived primary human bronchial epithelial cells; host or cells: patient-derived primary human bronchial epithelial cells (delF508-CFTR)
As to the kind of experiment: Measurement of delF508-CFTR functional activity in primary human bronchial epithelial cells (HBECs) using Multi-Transepithelial Clamp Circuit (MTECC-24) assay. Type of assay: cell-based. The conditions noted are these: primary CF HBECs; for MTECC24 CFHBEC- Amax %: test compound added 24h before assay plus potentiator, relative to reference combination (2 μM corrector + 0.5 μM potentiator); for pEC50: test compound added 24h before assay, in the presence of potentiator, mean of at least two replicates, read-out: MTECC24 CFHBEC- EC50. A digest of the protocol:
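Patient-derived primary delF508-CFTR HBECs, differentiated at air-liquid interface ~2 weeks, treated basolaterally with compound for 24 h, then apical and basolateral compound in HEPES pH 7.4 assay medium. Equivalent short-circuit current (Ieq) recorded on MTECC-24 with sequential amiloride, forskolin, potentiator and INH-172; normalized to 0.1% DMSO, EC50 from curve fit.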

pEC50: −log10 of the molar value. Structures can show the parent of a compound that is named as a salt.

This is an account of results in US11066369B2, “N-(pyridin-2-yl)pyridine-sulfonamide derivatives and their use in the treatment of disease” (Novartis AG, priority 2016, dated 2021).

T1 sequence (P13569 with tags, fused parts or gaps DEL508-508): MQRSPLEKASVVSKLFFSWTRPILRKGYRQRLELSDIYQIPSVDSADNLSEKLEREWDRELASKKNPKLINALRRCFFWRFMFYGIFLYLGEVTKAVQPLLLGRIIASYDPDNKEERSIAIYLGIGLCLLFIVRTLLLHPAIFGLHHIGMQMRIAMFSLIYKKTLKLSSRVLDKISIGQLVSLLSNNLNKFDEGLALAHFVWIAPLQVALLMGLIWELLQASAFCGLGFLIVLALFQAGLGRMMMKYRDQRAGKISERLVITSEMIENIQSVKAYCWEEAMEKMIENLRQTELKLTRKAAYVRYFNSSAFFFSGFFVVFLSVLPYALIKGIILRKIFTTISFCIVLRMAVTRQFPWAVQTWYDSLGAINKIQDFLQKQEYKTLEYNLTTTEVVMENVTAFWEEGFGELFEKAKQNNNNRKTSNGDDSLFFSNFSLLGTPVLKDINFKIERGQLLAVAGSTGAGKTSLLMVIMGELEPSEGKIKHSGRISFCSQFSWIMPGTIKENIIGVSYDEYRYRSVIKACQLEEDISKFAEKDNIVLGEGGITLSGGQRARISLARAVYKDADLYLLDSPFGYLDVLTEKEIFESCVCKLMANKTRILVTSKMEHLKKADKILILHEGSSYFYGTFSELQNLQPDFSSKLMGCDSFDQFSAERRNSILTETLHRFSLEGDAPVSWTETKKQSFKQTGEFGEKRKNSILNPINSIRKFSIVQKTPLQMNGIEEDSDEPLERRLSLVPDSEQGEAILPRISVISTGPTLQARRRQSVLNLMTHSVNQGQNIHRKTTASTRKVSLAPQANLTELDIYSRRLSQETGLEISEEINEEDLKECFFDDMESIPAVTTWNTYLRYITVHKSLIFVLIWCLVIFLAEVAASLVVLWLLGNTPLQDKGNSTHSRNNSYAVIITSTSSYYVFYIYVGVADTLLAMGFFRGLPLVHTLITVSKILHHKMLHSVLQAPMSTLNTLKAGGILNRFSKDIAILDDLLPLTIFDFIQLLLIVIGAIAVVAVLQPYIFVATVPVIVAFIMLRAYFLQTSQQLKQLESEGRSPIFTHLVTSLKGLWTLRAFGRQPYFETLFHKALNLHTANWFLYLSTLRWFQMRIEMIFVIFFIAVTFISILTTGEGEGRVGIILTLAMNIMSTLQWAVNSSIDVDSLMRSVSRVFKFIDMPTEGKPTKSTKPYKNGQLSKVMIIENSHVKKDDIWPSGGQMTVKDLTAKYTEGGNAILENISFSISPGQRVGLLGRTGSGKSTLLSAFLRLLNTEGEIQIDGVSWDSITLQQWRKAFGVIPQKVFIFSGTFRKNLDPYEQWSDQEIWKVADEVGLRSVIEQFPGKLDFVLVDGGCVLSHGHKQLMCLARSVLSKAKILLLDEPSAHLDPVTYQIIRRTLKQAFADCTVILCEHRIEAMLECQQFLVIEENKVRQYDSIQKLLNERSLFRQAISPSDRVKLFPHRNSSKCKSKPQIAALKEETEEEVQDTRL
T2 sequence (P13569 with tags, fused parts or gaps DEL508-508): as above

Take `COc1ccc(Cl)c(-c2nc(NS(=O)(=O)c3cccc(N4CCNCC4)n3)ccc2C(F)(F)F)c1` [Example 154, N-(6-(2-chloro-5-methoxyphenyl)-5-(trifluoromethyl)pyridin-2-yl)-6-(piperazin-1-yl)pyridine-2-sulfonamide hydrochloride]: in assay [1], the Emax stood at 395% and the pEC50 (as a rule, −log10 of the EC50, conventionally taken in molar units) was 5.46. Besides, in assay [2], the “MTECC24 CFHBEC- Amax %” value was 69.5% and the pEC50 was 6.62.

Consider `COc1ccc(Cl)c(-c2nc(NS(=O)(=O)c3cccc(N4CCNCC4)n3)ccc2Cl)c1` [Example 158, N-(5-chloro-6-(2-chloro-5-methoxyphenyl)pyridin-2-yl)-6-(piperazin-1-yl)pyridine-2-sulfonamide hydrochloride], for which, in assay [1], the Emax worked out at 230% and the pEC50 was 5.38. Moreover, in assay [2], the “MTECC24 CFHBEC- Amax %” value was 76.6% and the pEC50 was 7.03.

For `Cc1ccccc1-c1nc(NS(=O)(=O)c2cccc(N3CCN(C(=O)OC(C)(C)C)CC3)n2)ccc1C(F)(F)F` [Example 160, tert-butyl 4-(6-(N-(6-(o-tolyl)-5-(trifluoromethyl)pyridin-2-yl)sulfamoyl)pyridin-2-yl)piperazine-1-carboxylate], in assay [1], the Emax turned out to be 476% and the pEC50 is 6.13. In assay [2], the “MTECC24 CFHBEC- Amax %” value is reported as 88.2% and the pEC50 was 7.63.

For the compound `Cc1ccccc1-c1nc(NS(=O)(=O)c2cccc(N3CCNCC3)n2)ccc1C(F)(F)F` [Example 161, 6-(piperazin-1-yl)-N-(6-(o-tolyl)-5-(trifluoromethyl)pyridin-2-yl)pyridine-2-sulfonamide (HCl Salt)], in assay [1], the Emax came out at 222% and the pEC50 is 5.54. Besides, in assay [2], the “MTECC24 CFHBEC- Amax %” value turned out to be 88.2% and the pEC50 is 7.04.

With `Cc1cccc(C)c1-c1nc(NS(=O)(=O)c2cccc(N3CCN(C(=O)OC(C)(C)C)CC3)n2)ccc1Cl` [Example 162, tert-butyl 4-(6-(N-(5-chloro-6-(2,6-dimethylphenyl)pyridin-2-yl)sulfamoyl)pyridin-2-yl)piperazine-1-carboxylate], in assay [1], the Emax is 662% and the pEC50 is 6.18. In addition, in assay [2], the “MTECC24 CFHBEC- Amax %” value is reported as 58.8% and the pEC50 is 7.75.

With `Cc1cccc(C)c1-c1nc(NS(=O)(=O)c2cccc(N3CCNCC3)n2)ccc1Cl` [Example 163, N-(5-chloro-6-(2,6-dimethylphenyl)pyridin-2-yl)-6-(piperazin-1-yl)pyridine-2-sulfonamide Hydrochloride], in assay [1], the Emax is 305% and the pEC50 was 5.50. Further, in assay [2], the “MTECC24 CFHBEC- Amax %” value is 64.8% and the pEC50 is 7.23.

Turning to `Cc1ccccc1-c1nc(NS(=O)(=O)c2cccc(N3CCN(C(=O)OC(C)(C)C)[C@@H](CO)C3)n2)ccc1C(F)(F)F` [Example 164, tert-butyl (R)-2-(hydroxymethyl)-4-(6-(N-(6-(o-tolyl)-5-(trifluoromethyl)pyridin-2-yl)sulfamoyl)pyridin-2-yl)piperazine-1-carboxylate], in assay [1], the Emax turned out to be 578% and the pEC50 is 5.98. For the same compound, in assay [2], the “MTECC24 CFHBEC- Amax %” value is 74.3% and the pEC50 was 7.31.

Take `Cc1ccccc1-c1nc(NS(=O)(=O)c2cccc(N3CCN[C@@H](CO)C3)n2)ccc1C(F)(F)F` [Example 165, (R)-6-(3-(hydroxymethyl)piperazin-1-yl)-N-(6-(o-tolyl)-5-(trifluoromethyl)pyridin-2-yl)pyridine-2-sulfonamide hydrochloride]: in assay [1], the Emax was 401% and the pEC50 is 5.54. Also, in assay [2], the “MTECC24 CFHBEC- Amax %” value was found to be 50.8% and the pEC50 was 6.47.

With `Cc1ccccc1-c1nc(NS(=O)(=O)c2cccc(N3CCN(C(=O)OC(C)(C)C)[C@H](C)C3)n2)ccc1C(F)(F)F` [Example 166, tert-butyl (R)-2-methyl-4-(6-(N-(6-(o-tolyl)-5-(trifluoromethyl)pyridin-2-yl)sulfamoyl)pyridin-2-yl)piperazine-1-carboxylate], the pEC50 in assay [1] was 6.13. Further, in assay [2], the “MTECC24 CFHBEC- Amax %” value was 62.4% and the pEC50 is 7.93.

For `Cc1ccccc1-c1nc(NS(=O)(=O)c2cccc(N3CCN[C@H](C)C3)n2)ccc1C(F)(F)F` [Example 167, (R)-6-(3-methylpiperazin-1-yl)-N-(6-(o-tolyl)-5-(trifluoromethyl)pyridin-2-yl)pyridine-2-sulfonamide Hydrochloride], in assay [1], the Emax worked out at 317% and the pEC50 was 5.43. In assay [2], the “MTECC24 CFHBEC- Amax %” value is 67.6% and the pEC50 was 7.07.

For `Cc1ccc(C(F)(F)F)cc1-c1nc(NS(=O)(=O)c2cccc(N3CCNCC3)n2)ccc1Cl` [Example 169, N-(5-chloro-6-(2-methyl-5-(trifluoromethyl)phenyl)pyridin-2-yl)-6-(piperazin-1-yl)pyridine-2-sulfonamide Hydrochloride], in assay [1], the Emax was 182% and the pEC50 is 5.40. For the same compound, in assay [2], the “MTECC24 CFHBEC- Amax %” value is reported as 40.5% and the pEC50 is 6.84.

As for `Cc1ccccc1-c1nc(NS(=O)(=O)c2cccc(N3CCNC[C@@H]3C)n2)ccc1C(F)(F)F` [Example 170, (S)-6-(2-methylpiperazin-1-yl)-N-(6-(o-tolyl)-5-(trifluoromethyl)pyridin-2-yl)pyridine-2-sulfonamide Hydrochloride], in assay [1], the Emax is 306% and the pEC50 is 5.66. Further, in assay [2], the “MTECC24 CFHBEC- Amax %” value is 63.3% and the pEC50 is 6.76.

For the compound `Cc1ccccc1-c1nc(NS(=O)(=O)c2cccc(N3CCNC[C@H]3C)n2)ccc1C(F)(F)F` [Example 171, (R)-6-(2-methylpiperazin-1-yl)-N-(6-(o-tolyl)-5-(trifluoromethyl)pyridin-2-yl)pyridine-2-sulfonamide Hydrochloride], in assay [1], the Emax was found to be 505% and the pEC50 is 5.56. In assay [2], the “MTECC24 CFHBEC- Amax %” value is reported as 66.2% and the pEC50 is 6.93.

Take `Cc1cccc(C)c1-c1nc(NS(=O)(=O)c2cccc(N3CCN[C@@H](CO)C3)n2)ccc1C(F)(F)F` [Example 172, (R)—N-(6-(2,6-dimethylphenyl)-5-(trifluoromethyl)pyridin-2-yl)-6-(3-(hydroxymethyl)piperazin-1-yl)pyridine-2-sulfonamide Hydrochloride]: in assay [1], the Emax is 684% and the pEC50 was 5.60. Also, in assay [2], the “MTECC24 CFHBEC- Amax %” value is on record as 77.0% and the pEC50 is 6.50.

As for `Cc1cccc(C)c1-c1nc(NS(=O)(=O)c2cccc(N3CCN[C@H](CO)C3)n2)ccc1C(F)(F)F` [Example 173, (S)—N-(6-(2,6-dimethylphenyl)-5-(trifluoromethyl)pyridin-2-yl)-6-(3-(hydroxymethyl)piperazin-1-yl)pyridine-2-sulfonamide Hydrochloride], in assay [1], the Emax is 682% and the pEC50 is 5.63. In addition, in assay [2], the “MTECC24 CFHBEC- Amax %” value came out at 61.4% and the pEC50 is 7.11.

With `Cc1ccc(F)cc1-c1nc(NS(=O)(=O)c2cccc(N3CCN[C@@H](CO)C3)n2)ccc1C(F)(F)F` [Example 174, (R)—N-(6-(5-fluoro-2-methylphenyl)-5-(trifluoromethyl)pyridin-2-yl)-6-(3-(hydroxymethyl)piperazin-1-yl)pyridine-2-sulfonamide Hydrochloride], in assay [1], the Emax stood at 515% and the pEC50 is 5.58. In assay [2], the “MTECC24 CFHBEC- Amax %” value was 57.1% and the pEC50 is 6.68.

As to `Cc1ccc(F)cc1-c1nc(NS(=O)(=O)c2cccc(N3CCN[C@H](CO)C3)n2)ccc1C(F)(F)F` [Example 175, (S)—N-(6-(5-fluoro-2-methylphenyl)-5-(trifluoromethyl)pyridin-2-yl)-6-(3-(hydroxymethyl)piperazin-1-yl)pyridine-2-sulfonamide Hydrochloride], in assay [1], the Emax amounted to 530% and the pEC50 was 5.49. For the same compound, in assay [2], the “MTECC24 CFHBEC- Amax %” value amounted to 63.4% and the pEC50 is 6.55.

Regarding `Cc1ccc(F)cc1-c1nc(NS(=O)(=O)c2cccc(N3CCN[C@H](C)C3)n2)ccc1C(F)(F)F` [Example 176, (R)—N-(6-(5-fluoro-2-methylphenyl)-5-(trifluoromethyl)pyridin-2-yl)-6-(3-methylpiperazin-1-yl)pyridine-2-sulfonamide Hydrochloride], in assay [1], the Emax came out at 529% and the pEC50 was 5.47. For the same compound, in assay [2], the “MTECC24 CFHBEC- Amax %” value is reported as 69.8% and the negative logarithm of the EC50 (pEC50) is 6.65.

As for `Cc1ccc(F)cc1-c1nc(NS(=O)(=O)c2cccc(N3CCN[C@@H](C)C3)n2)ccc1C(F)(F)F` [Example 177, (S)—N-(6-(5-fluoro-2-methylphenyl)-5-(trifluoromethyl)pyridin-2-yl)-6-(3-methylpiperazin-1-yl)pyridine-2-sulfonamide Hydrochloride], in assay [1], the Emax was found to be 447% and the negative-log EC50 (pEC50) was 5.55. In assay [2], the “MTECC24 CFHBEC- Amax %” value is given as 79.7% and the pEC50 was 6.64.
